Target: BRAF V600E (Homo sapiens, UniProt P15056, V600E)
Assay: HiBiT cellular BRAF^V600E degradation assay
Format: cell-based
Conditions: A375.10 cells, 24 h; for DC50: concentration at which 50% of total cellular BRAF^V600E is degraded; for Emax: residual protein remaining in the cell, read-out: HiBit 24 h Emax

BRAF V600E, sequence (P15056 whole entry V600E): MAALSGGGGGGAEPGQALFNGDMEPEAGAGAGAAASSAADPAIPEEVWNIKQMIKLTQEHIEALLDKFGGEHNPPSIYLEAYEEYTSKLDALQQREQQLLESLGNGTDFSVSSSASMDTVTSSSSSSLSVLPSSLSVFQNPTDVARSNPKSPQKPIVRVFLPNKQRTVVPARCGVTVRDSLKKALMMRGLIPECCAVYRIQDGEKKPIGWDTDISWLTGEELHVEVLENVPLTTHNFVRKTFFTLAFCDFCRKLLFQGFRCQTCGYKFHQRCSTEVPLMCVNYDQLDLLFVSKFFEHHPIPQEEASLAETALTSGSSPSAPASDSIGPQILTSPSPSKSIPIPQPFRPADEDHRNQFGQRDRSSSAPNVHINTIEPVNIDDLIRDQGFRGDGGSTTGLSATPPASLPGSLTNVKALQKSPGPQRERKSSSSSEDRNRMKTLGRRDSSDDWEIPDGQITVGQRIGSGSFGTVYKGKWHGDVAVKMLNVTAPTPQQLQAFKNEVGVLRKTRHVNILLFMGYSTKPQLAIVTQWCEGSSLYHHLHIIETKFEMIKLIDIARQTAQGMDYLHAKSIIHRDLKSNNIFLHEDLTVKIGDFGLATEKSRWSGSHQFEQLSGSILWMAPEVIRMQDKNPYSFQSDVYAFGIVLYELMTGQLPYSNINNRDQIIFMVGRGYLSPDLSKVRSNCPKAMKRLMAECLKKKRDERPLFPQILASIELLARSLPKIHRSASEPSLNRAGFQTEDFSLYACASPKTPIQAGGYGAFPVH

Row | SMILES | DC50 [nM] | Emax [%]
1 | Cn1nc(N2CCC(=O)NC2=O)c2cc(F)c(N3CCC(O)(CC(=O)N4CCC5(CC4)C[C@@H](n4cnc6ccc(Oc7c(F)ccc(NS(=O)(=O)N8CC[C@@H](F)C8)c7C#N)cc6c4=O)CO5)CC3)cc21 [Example 190, (3R)—N-[2-cyano-3-[3-[(3R)-8-[2-[1-[3-(2,4-dioxo-1,3-diazinan-1-yl)-5-fluoro-1-methylindazol-6-yl]-4-hydroxypiperidin-4-yl]acetyl]-1-oxa-8-azaspiro[4.5]decan-3-yl]-4-oxoquinazolin-6-yl]oxy-4-fluorophenyl]-3-fluoropyrrolidine-1-sulfonamide] | 39.3 | 24.7
2 | Cn1nc(N2CCC(=O)NC2=O)c2cc(F)c(N3CCC(O)(CC(=O)N4CCC5(CC4)C[C@@H](n4cnc6ccc(Oc7c(F)ccc(NS(=O)(=O)C8CCCC8)c7C#N)cc6c4=O)CO5)CC3)cc21 [Example 191, N-[2-cyano-3-[3-[(3R)-8-[2-[1-[3-(2,4-dioxo-1,3-diazinan-1-yl)-5-fluoro-1-methylindazol-6-yl]-4-hydroxypiperidin-4-yl]acetyl]-1-oxa-8-azaspiro[4.5]decan-3-yl]-4-oxoquinazolin-6-yl]oxy-4-fluorophenyl]cyclopentanesulfonamide] | 27.1 | 26.8
3 | Cn1nc(N2CCC(=O)NC2=O)c2cc(F)c(N3CCC(O)(CC(=O)N4CCC5(CC4)C[C@@H](n4cnc6ccc(Oc7c(F)ccc(NS(=O)(=O)C8CC8)c7C#N)cc6c4=O)CO5)CC3)cc21 [Example 192, N-[2-cyano-3-[3-[(3R)-8-[2-[1-[3-(2,4-dioxo-1,3-diazinan-1-yl)-5-fluoro-1-methylindazol-6-yl]-4-hydroxypiperidin-4-yl]acetyl]-1-oxa-8-azaspiro[4.5]decan-3-yl]-4-oxoquinazolin-6-yl]oxy-4-fluorophenyl]cyclopropanesulfonamide] | 31.7 | 32.2
4 | COC1CN(S(=O)(=O)Nc2ccc(F)c(Oc3ccc4ncn([C@H]5COC6(CCN(C(=O)CC7(O)CCN(c8cc9c(cc8F)c(N8CCC(=O)NC8=O)nn9C)CC7)CC6)C5)c(=O)c4c3)c2C#N)C1 [Example 193, N-[2-cyano-3-[3-[(3R)-8-[2-[1-[3-(2,4-dioxo-1,3-diazinan-1-yl)-5-fluoro-1-methylindazol-6-yl]-4-hydroxypiperidin-4-yl]acetyl]-1-oxa-8-azaspiro[4.5]decan-3-yl]-4-oxoquinazolin-6-yl]oxy-4-fluorophenyl]-3-methoxyazetidine-1-sulfonamide] | 142 | 33.8
5 | Cn1nc(N2CCC(=O)NC2=O)c2cc(F)c(N3CCC(O)(CC(=O)N4CCC5(CC4)C[C@@H](n4cnc6ccc(Oc7c(F)ccc(NS(=O)(=O)N8CC9CC9C8)c7C#N)cc6c4=O)CO5)CC3)cc21 (stereo partly drawn) [Example 194, N-[2-cyano-3-[3-[(3R)-8-[2-[1-[3-(2,4-dioxo-1,3-diazinan-1-yl)-5-fluoro-1-methylindazol-6-yl]-4-hydroxypiperidin-4-yl]acetyl]-1-oxa-8-azaspiro[4.5]decan-3-yl]-4-oxoquinazolin-6-yl]oxy-4-fluorophenyl]-3-azabicyclo[3.1.0]hexane-3-sulfonamide] | 42.8 | 26.2
6 | Cn1nc(N2CCC(=O)NC2=O)c2cc(F)c(N3CCC(O)(CC(=O)N4CCC5(CC4)C[C@@H](n4cnc6ccc(Oc7c(F)ccc(NS(=O)(=O)N8CCCC8)c7C#N)cc6c4=O)CO5)CC3)cc21 [Example 195, N-[2-cyano-3-[3-[(3R)-8-[2-[1-[3-(2,4-dioxo-1,3-diazinan-1-yl)-5-fluoro-1-methylindazol-6-yl]-4-hydroxypiperidin-4-yl]acetyl]-1-oxa-8-azaspiro[4.5]decan-3-yl]-4-oxoquinazolin-6-yl]oxy-4-fluorophenyl]pyrrolidine-1-sulfonamide] | 16 | 26.3
7 | Cn1nc(N2CCC(=O)NC2=O)c2cc(F)c(N3CCC(O)(CC(=O)N4CCC5(CC4)C[C@@H](n4cnc6ccc(Oc7c(F)ccc(NS(=O)(=O)N8CCC8)c7C#N)cc6c4=O)CO5)CC3)cc21 [Example 196, N-[2-cyano-3-[3-[(3R)-8-[2-[1-[3-(2,4-dioxo-1,3-diazinan-1-yl)-5-fluoro-1-methylindazol-6-yl]-4-hydroxypiperidin-4-yl]acetyl]-1-oxa-8-azaspiro[4.5]decan-3-yl]-4-oxoquinazolin-6-yl]oxy-4-fluorophenyl]azetidine-1-sulfonamide] | 9990 | 89.4
8 | CN(C1CC1)S(=O)(=O)Nc1ccc(F)c(Oc2ccc3ncn([C@H]4COC5(CCN(C(=O)CC6(O)CCN(c7cc8c(cc7F)c(N7CCC(=O)NC7=O)nn8C)CC6)CC5)C4)c(=O)c3c2)c1C#N [Example 197, (3R)-3-[6-[2-cyano-3-[[cyclopropyl(methyl)sulfamoyl]amino]-6-fluorophenoxy]-4-oxoquinazolin-3-yl]-8-[2-[1-[3-(2,4-dioxo-1,3-diazinan-1-yl)-5-fluoro-1-methylindazol-6-yl]-4-hydroxypiperidin-4-yl]acetyl]-1-oxa-8-azaspiro[4.5]decane] | 25.7 | 27.8
9 | Cn1nc(N2CCC(=O)NC2=O)c2cc(F)c(N3CCC(O)(CC(=O)N4CCC5(CC4)C[C@@H](n4cnc6ccc(Oc7c(F)ccc(NS(=O)(=O)C8CCC8)c7C#N)cc6c4=O)CO5)CC3)cc21 [Example 198, N-[2-cyano-3-[3-[(3R)-8-[2-[1-[3-(2,4-dioxo-1,3-diazinan-1-yl)-5-fluoro-1-methylindazol-6-yl]-4-hydroxypiperidin-4-yl]acetyl]-1-oxa-8-azaspiro[4.5]decan-3-yl]-4-oxoquinazolin-6-yl]oxy-4-fluorophenyl]cyclobutanesulfonamide] | 28.7 | 28.1
10 | CCN(C)S(=O)(=O)Nc1ccc(F)c(Oc2ccc3ncn(-c4cnc(N5CCN(C(=O)CC6(O)CCN(c7cc8c(cc7F)c(N7CCC(=O)NC7=O)nn8C)CC6)CC5)nc4)c(=O)c3c2)c1C#N [Example 199, 6-[2-cyano-3-[[ethyl(methyl)sulfamoyl]amino]-6-fluorophenoxy]-3-[2-[4-[2-[1-[3-(2,4-dioxo-1,3-diazinan-1-yl)-5-fluoro-1-methylindazol-6-yl]-4-hydroxypiperidin-4-yl]acetyl]piperazin-1-yl]pyrimidin-5-yl]-4-oxoquinazoline] | 21.7 | 27.9
11 | CCN(C)S(=O)(=O)Nc1ccc(F)c(Oc2ccc3ncn([C@H]4COC5(CCC(N6CCC(c7cc8c(cc7F)c(N7CCC(=O)NC7=O)nn8C)CC6)CC5)C4)c(=O)c3c2)c1C#N (stereo partly drawn) [Example 200, 6-[2-cyano-3-[[ethyl(methyl)sulfamoyl]amino]-6-fluorophenoxy]-3-[(3R)-8-[4-[3-(2,4-dioxo-1,3-diazinan-1-yl)-5-fluoro-1-methylindazol-6-yl]piperidin-1-yl]-1-oxaspiro[4.5]decan-3-yl]-4-oxoquinazoline] | 15.9 | 26.9
12 | CCN(C)S(=O)(=O)Nc1ccc(F)c(Oc2ccc3ncn([C@H]4COC5(CCN(C(=O)CC6(F)CCN(c7cc8c(cc7F)c(N7CCC(=O)NC7=O)nn8C)CC6)CC5)C4)c(=O)c3c2)c1C#N [Example 201, (3R)-3-[6-[2-cyano-3-[[ethyl(methyl)sulfamoyl]amino]-6-fluorophenoxy]-4-oxoquinazolin-3-yl]-8-[2-[1-[3-(2,4-dioxo-1,3-diazinan-1-yl)-5-fluoro-1-methylindazol-6-yl]-4-fluoropiperidin-4-yl]acetyl]-1-oxa-8-azaspiro[4.5]decane] | 42.5 | 27.2
13 | CCN(C)S(=O)(=O)Nc1ccc(F)c(Oc2ccc3ncc(-n4cc(N5CCCN(C(=O)CN6CCC(c7ccc(NC8CCC(=O)NC8=O)cc7F)CC6)CC5)cn4)nc3c2)c1C#N (stereo not shown) [Example 215, 7-[2-cyano-3-[[ethyl(methyl)sulfamoyl]amino]-6-fluorophenoxy]-2-[4-[4-[2-[4-[4-[(2,6-dioxopiperidin-3-yl)amino]-2-fluorophenyl]piperidin-1-yl]acetyl]-1,4-diazepan-1-yl]pyrazol-1-yl]quinoxaline] | 18.6 | 7.82
14 | CCN(C)S(=O)(=O)Nc1ccc(F)c(Oc2ccc3ncc(OCC4CCN(C(=O)CN5CCC(c6ccc(NC7CCC(=O)NC7=O)cc6F)CC5)CC4)nc3c2)c1C#N (stereo not shown) [Example 216, 7-[2-cyano-3-[[ethyl(methyl)sulfamoyl]amino]-6-fluorophenoxy]-2-[[1-[2-[4-[4-[(2,6-dioxopiperidin-3-yl)amino]-2-fluorophenyl]piperidin-1-yl]acetyl]piperidin-4-yl]methoxy]quinoxaline] | 25.2 | 10.1
15 | CCN(C)S(=O)(=O)Nc1ccc(F)c(Oc2ccc3ncc(OC[C@@H]4[C@H]5CN(C(=O)CN6CCC(c7ccc(NC8CCC(=O)NC8=O)cc7F)CC6)C[C@@H]45)nc3c2)c1C#N (stereo partly drawn) [Example 217, 7-[2-cyano-3-[[ethyl(methyl)sulfamoyl]amino]-6-fluorophenoxy]-2-[[(1R,5S)-3-[2-[4-[4-[(2,6-dioxopiperidin-3-yl)amino]-2-fluorophenyl]piperidin-1-yl]acetyl]-3-azabicyclo[3.1.0]hexan-6-yl]methoxy]quinoxaline] | 18 | 8.83
16 | CCN(C)S(=O)(=O)Nc1ccc(F)c(Oc2ccc3ncc(C4COC5(CCN(C(=O)CN6CCC(c7ccc(NC8CCC(=O)NC8=O)cc7F)CC6)CC5)C4)cc3c2)c1C#N (stereo not shown) [Example 218, 3-[6-[2-cyano-3-[[ethyl(methyl)sulfamoyl]amino]-6-fluorophenoxy]quinolin-3-yl]-8-[2-[4-[4-[(2,6-dioxopiperidin-3-yl)amino]-2-fluorophenyl]piperidin-1-yl]acetyl]-1-oxa-8-azaspiro[4.5]decane] | 11.3 | 6.96
17 | CCN(C)S(=O)(=O)Nc1ccc(F)c(Oc2ccc3ncc(N4CCC5(CCN(C(=O)CN6CCC(c7ccc(NC8CCC(=O)NC8=O)cc7F)CC6)CC5)C4)nc3c2)c1C#N (stereo not shown) [Example 219, 7-[2-cyano-3-[[ethyl(methyl)sulfamoyl]amino]-6-fluorophenoxy]-2-[8-[2-[4-[4-[(2,6-dioxopiperidin-3-yl)amino]-2-fluorophenyl]piperidin-1-yl]acetyl]-2,8-diazaspiro[4.5]decan-2-yl]quinoxaline] | 21.7 | 13.9

Reference: patent US12486253B2, “Therapeutics for the degradation of mutant BRAF” (C4 THERAPEUTICS, INC., priority 2021, dated 2025)
